PMC10969377, “N-3-Methylbutyl-benzisoselenazol-3(2H)-one Exerts Antifungal Activity In Vitro and in a Mouse Model of Vulvovaginal Candidiasis” (Current Issues in Molecular Biology, 2024)

Biological target: T1, Na+, K+-ATPase (Sus scrofa, UniProt P05024)
T1 construct: gene ATP1A1; purified from pig kidney outer medulla
Test: Na+,K+-ATPase activity inhibition, enzyme purified from pig kidney (Figure S4)
Type: biochemical

SMILES | Na+,K+-ATPase activity inhibition, enzyme purified from pig kidney (Figure S4)
C=CCn1[se]c2ccccc2c1=O [N-allyl-bs, N-allyl-benzisoselenazol-3(2H)-one] | both N-allyl-bs and N-3mb-bs showed Na^+, K^+-ATPase inhibitory activity (purified from pig kidney outer medulla)
CC(C)CCn1[se]c2ccccc2c1=O [N-3mb-bs, N-3-methylbutyl-benzisoselenazol-3(2H)-one] | both N-allyl-bs and N-3mb-bs showed Na^+, K^+-ATPase inhibitory activity (purified from pig kidney outer medulla)
